47 compounds from patent publication US7300784B2 (priority 2001, dated 2007) can be followed below.

Like-named read-outs stand apart in the source and are kept apart here.

Holding throughout (assay type): biochemical
Assay [1] deals with nitrile hydratase of Rhodococcus sp. Cr4. As to conditions: for effect on enzyme activity (words): inhibitors. As for the experimental part:
(§1) The standard assay method for the nitrile hydratase activity used in the following Examples as follows. The enzyme reaction is initiated by adding 3-cyanopyridine or 2-hydroxy-4-methylthiobutyronitrile (HMBN) as the substrate compound. In the case of 3-cyanopyridine, incubation was continued at 20° C. for 10 minute, in the case of HMBN, at 20° C. for 15 minutes. When 3-cyanopyridine was used in the reaction, 0.1 ml of 2 N hydrochloric acid was added to the reaction and the mixture was shaken vigorously to stop the reaction; when HMBN was used in the reaction, 0.1 ml of the reaction solution was added to 0.9 ml of 0.1% (v/v) phosphoric acid and the mixture was shaken vigorously to stop the reaction. The reaction solution was analyzed by HPLC.
• 10% (v/v) HMBN was added to initiate the reaction. • The mixture was incubated with shaking at 20° C. for 10 minutes. • 0.1% (v/v) H3PO4 was added to stop the reaction. • Centrifugation. • HPLC analysis.
Inhibitors to the enzyme were studied. With the standard composition of reaction solution shown in Table 1, various inhibitors were added at a final concentration 1.0 mM or 0.1 mM to the solutions containing 2.92 U enzyme; after the mixtures were incubated at 20° C. for 10 minutes, the reaction was carried out for 15 minutes.

For assay [2] the test system is unchanged. The experiment in a line: Substrate specificity of the purified nitrile hydratase (amide formation by HPLC). As to conditions: for substrate suitability: purified nitrile hydratase. As for the experimental part: as §1
• 0.3 M 3-cyanopyridine was added to initiate the reaction. • The mixture was incubated with shaking at 20° C. for […]. • 2 N HCl was added to stop the reaction. • Centrifugation. • HPLC analysis.
The substrate specificity of the enzymewas examined. With the standard composition reaction solution shown in table 2, 2.92 U enzyme was incubated with various types of substrates, instead of 3-cyanopyridine; the generation of amides in the reaction solution was analyzed by HPLC. Thus, the relative activity was determined. The types of substrate compounds added, final concentrations thereof, reaction times, and HPLC conditions used for the analyses of products corresponding to the respective substrates are shown in Table 6. The HPLC conditions (1)-(9) are indicated next to Table 6.
The conditions for HPLC were as follows: • (1) Column: Waters Spherisorb 5 μODS2 (4.6×150 mm); • Solvent: 10 mM KH2PO4(pH 2.8)/acetonitrile (v/v)=9:1; • Flow rate: 1.0 ml/min; • Detection: 230 nm; • Injection volume: 5 μl. • (2) Column: Waters Spherisorb 5 μODS2 (4.6×150 mm); • Solvent: 10 mM KH2PO4(pH 2.8)/acetonitrile (v/v)=9:1; • Flow rate: 1.0 ml/min; • Detection: 230 nm; • Injection volume:5 μl. • (3) Column: Waters Spherisorb 5 μODS2 (4.6×150 mm); • Solvent: 5 mM KH2PO4 (pH 2.8)/acetonitrile (v/v)=12:7; • Flow rate: 1.0 ml/min; • Detection: 230 nm; • Injection volume: 5 μl. • (4) Column: Waters Spherisorb 5 μODS2 (4.6×150 mm); • Solvent: 10 mM KH2PO4(pH 2.5)/acetonitrile (v/v)=99:1; • Flow rate: 1.0 ml/min; • Detection: 210 nm; • Injection volume: 5 μl. • (5) Column: Waters Spherisorb 5 μODS2 (4.6×150 mm); • Solvent: 10 mM KH2PO4(pH 2.5)/acetonitrile (v/v)=99:1; • Flow rate: 1.0 ml/min; • Detection: 230 nm; • Injection volume: 5 μl. • (6) Column: Spherisorb S5ODS2 (4.6×150 mm) • Solvent: 0.1% (v/v) phosphate/acetonitrile (v/v)=99:1; • Flow rate: 1.0 ml/min; • Detection: 210 nm; • Injection volume: 5 μl. • (7) Column: Spherisorb S5ODS2 (4.6×150 mm); • Solvent: 0.1% (v/v) phosphate/acetonitrile (v/v)=9:1; • Flow rate: 1.0 ml/min; • Detection: 210 nm; • Injection volume: 5 μl; • Temperature: 40° C. • (8) Column: Spherisorb S5ODS2 (4.6×150 mm); • Solvent: 0.1%(v/v) phosphate/acetonitrile (v/v)=9:1; • Flow rate: 1.0 ml/min; • Detection: 230 nm; • Injection volume: 5 μl • Temperature: 40° C. • (9) Column: Spherisorb S5ODS2 (4.6×150 mm); • Solvent: 5 mM KH2PO4 (pH 2.8)/acetonitrile (v/v)=12:7; • Flow rate: 1.0 ml/min; • Detection: 210 nm; • Injection volume: 5 μl; • Temperature: 40° C. 13. The Effect of Inhibitors on the Enzymatic Activity

The test system is the same in assay [3]. The experiment in a line: Effect of coexisting Ni++ ion with various substrates. The protocol:
Then, with the standard composition of reaction solution shown in table 2, various types of substrates, instead of 3-cyanopyridine, were added to the solutions containing 2.92 U enzyme to study their effects on the activity. […] The addition of Ni^++ ion was assumed to specifically enhance the reaction efficiency when the substrate was a α-hydroxynitrile (Table 11).
The incubation was prolonged for 10 minutes at 20° C. using 2.92 U enzyme. 17. Determination of N-Terminal Amino Acid Sequence

Assay [4] shares this test system.
Setting [5] is: compound 1.0 mM, Free = 100, HMBN substrate, 20° C.
Where [6] appears, read: compound used as substrate, activity for 3-cyanopyridine = 100%, 20° C., 2.92 U enzyme.
Where [7] appears, read: compound used as substrate, methanol added (final conc. 20% v/v), 20° C., 2.92 U enzyme.

As for `O[C@H](CS)[C@H](O)CS` (racemic) [Dithiothreitol], the “Relative activity (%)” value in assay [1] (setting [5]) was determined as 93.4%.

As for `N#CCC(N)=O` [2-Cyanoacetamide], the “Relative activity (%)” value in assay [2] (setting [6]) was 46.3%.

`N#Cc1ccccn1` [2-Cyanopyridine]: the “Relative activity (%)” value in assay [2] (setting [6]) is recorded as 223%. The “substrate suitability” value in assay [2] was “suitable substrates”. In assay [3], the “activity, Free” value was determined as 100 and the “activity, NiCl2 (1 mM)” value is 97.

With `N#CCc1c[nH]c2ccccc12` [3-Indolylacetonitrile], the “Relative activity (%)” value in assay [2] (setting [7]) was 2.33%.

On to `N#CCCN` [3-aminopropyonitlile], for which, in assay [3], the “activity, Free” value was determined as 100 and the “activity, NiCl2 (1 mM)” value was found to be 97.

For the compound `N#Cc1ccncc1` [4-Cyanopyridine], the “Relative activity (%)” value in assay [2] (setting [6]) is 127%. Also, in assay [3], the “activity, Free” value was determined as 100 and the “activity, NiCl2 (1 mM)” value worked out at 99.

With `O=C(O)c1cc(SSc2ccc([N+](=O)[O-])c(C(=O)O)c2)ccc1[N+](=O)[O-]` [5-5′-Dithiobis], the “Relative activity (%)” value in assay [1] is 99.1%.

As for `CC#N` [Acetonitrile], the “Relative activity (%)” value in assay [2] stood at 14.6%.

Consider `C=CC#N` [Acrylonitrile], for which the “Relative activity (%)” value in assay [2] (setting [6]) is reported as 114%.

`O=[N+]([O-])[O-].[Ag+]` [AgNO3]: in assay [4], the “Relative activity (%)” value came out at 7.85% and the “effect on enzyme activity (words)” value was “markedly inhibited”.

Consider `N#CCN` [Aminoacetonitlile], for which, in assay [3], the “activity, Free” value is 0 and the “activity, NiCl2 (1 mM)” value is on record as 0.

Regarding `N#Cc1ccccc1` [Benzonitrile], in assay [2], the “Relative activity (%)” value is 138%.

Take `[Ca+2].[Cl-].[Cl-]` [CaCl2]: in assay [4], the “Relative activity (%)” value is reported as 96.4%.

`CC=CC#N` [Crotononitrile]: in assay [2] (setting [6]), the “Relative activity (%)” value is listed as 87.4%. In assay [3], the “activity, Free” value worked out at 100 and the “activity, NiCl2 (1 mM)” value is 103.

With `O=S(=O)([O-])[O-].[Cu+2]` [CuSO4], in assay [4], the “Relative activity (%)” value is reported as 109%.

For the compound `N#Cc1cnccn1` [Cyanopyrazine], in assay [2] (setting [6]), the “Relative activity (%)” value amounted to 114%.

For `NCCS` [Cysteamine], in assay [1], the “Relative activity (%)” value was 106%.

In the case of `N[C@@H]1CONC1=O` [D-Cycloserine], the “Relative activity (%)” value in assay [1] (setting [5]) is reported as 94.8%.

In the case of `O=C(O)CN(CCN(CC(=O)O)CC(=O)O)CC(=O)O` [EDTA], in assay [1], the “Relative activity (%)” value was 101%.

Consider `N#CCCO` [Etylene cyanohydrin], for which, in assay [3], the “activity, Free” value was 100 and the “activity, NiCl2 (1 mM)” value is 91.

On to `[Cl][Fe]([Cl])[Cl]` [FeCl3], for which the “Relative activity (%)” value in assay [4] was 100%.

On to `O=S(=O)([O-])[O-].[Fe+2]` [FeSO4], for which the “Relative activity (%)” value in assay [4] stood at 78.9%.

`[Cl][Hg][Cl]` [HgCl2]: the “Relative activity (%)” value in assay [4] (metal 1.0 mM, Free = 100, incubated 20° C. 10 minutes) is listed as 7.48%. The “effect on enzyme activity (words)” value in assay [4] (metal ions) is reported as “inhibited”; in assay [4] (metal ions, listed as Hg^++), “markedly inhibited”.

As to `N#CCO` [Hydroxyacetonitlile], in assay [3], the “activity, Free” value was determined as 0 and the “activity, NiCl2 (1 mM)” value is listed as 0.

As for `NO` [Hydroxylamine], the “Relative activity (%)” value in assay [1] (setting [5]) is on record as 62.1%. The “effect on enzyme activity (words)” value in assay [1] is recorded as “markedly inhibited”.

Regarding `O=C(O)CI` [Iodoacetate], the “Relative activity (%)” value in assay [1] worked out at 97.0%.

As to `CC(C)C#N` [Isobutyronitrile], in assay [2] (setting [7]), the “Relative activity (%)” value came to 40.9%.

As for `CC(C)CC#N` [Isovaleronitrile], the “Relative activity (%)” value in assay [2] (setting [7]) turned out to be 2.71%.

As for `N#CCC#N` [Malononitrile], the “substrate suitability” value in assay [2] was “suitable substrates”.

As for `N#CC(O)c1ccccc1` (stereo not shown) [Manderonitlile], in assay [3], the “activity, Free” value is listed as 100 and the “activity, NiCl2 (1 mM)” value was determined as 201. Moreover, in assay [3] (Ni++ added), the “effect of Ni++ on activity with this substrate” value is “enhanced twice”.

In the case of `C=C(C)C#N` [Methacrylonitrile], the “Relative activity (%)” value in assay [2] (setting [6]) is 93.7%.

Take `[Cl][Mn][Cl]` [MnCl2]: in assay [4], the “Relative activity (%)” value is 96.7%.

Take `CCN1C(=O)C=CC1=O` [N-Ethylmaleimide]: in assay [1] (setting [5]), the “Relative activity (%)” value amounted to 101%.

Turning to `[N-]=[N+]=[N-].[Na+]` [NaN3], the “Relative activity (%)” value in assay [1] came out at 98.5%.

For `NNc1ccccc1` [Phenylhydrazine], the “Relative activity (%)” value in assay [1] (setting [5]) is 8.19%. In addition, the “effect on enzyme activity (words)” value in assay [1] (listed as phenyl hydrazine) was “markedly inhibited”; in assay [1] (listed as phenylhydrazine), “inhibited”.

Regarding `CCC#N` [Propionitrile], in assay [2] (setting [6]), the “Relative activity (%)” value is reported as 173%.

With `O=S(=O)(O)c1cc(O)c(O)c(S(=O)(=O)O)c1` [Tiron], the “Relative activity (%)” value in assay [1] (setting [5]) is listed as 132%.

For `NC(N)=O` [Urea], in assay [1] (setting [5]), the “Relative activity (%)” value worked out at 95.7%.

On to `O=S(=O)([O-])[O-].[Zn+2]` [ZnSO4], for which the “Relative activity (%)” value in assay [4] is recorded as 84.1%.

As to `N#Cc1cccc(Cl)c1` [m-Chlorobenzonitrile], the “Relative activity (%)” value in assay [2] was found to be 7.18%.

As for `CCCC#N` [n-Butyronitrile], the “Relative activity (%)” value in assay [2] (setting [7]) is 379%. Besides, in assay [2], the “substrate suitability” value is reported as “suitable substrates”. In assay [3], the “activity, Free” value is 100 and the “activity, NiCl2 (1 mM)” value was 94.

On to `CCCCCC#N` [n-Capronitrile], for which, in assay [2] (setting [7]), the “Relative activity (%)” value is given as 18.1%.

`CCCCC#N` [n-Valeronitrile]: the “Relative activity (%)” value in assay [2] (setting [7]) stood at 118%.

Turning to `N#Cc1ccccc1Cl` [o-Chlorobenzonitrile], the “Relative activity (%)” value in assay [2] (setting [7]) was 58.6%.

Turning to `N#Cc1ccc(Cl)cc1` [p-Chlorobenzonitrile], in assay [2], the “Relative activity (%)” value was 28.4%.

Consider `O=C(O)c1cc[c]([Hg][Cl])cc1` [p-Chloromercuribenzoate], for which the “Relative activity (%)” value in assay [1] (setting [5]) is recorded as 97.7%.

For `C/C(N)=C/C#N` [β-aminochlotononitlile], in assay [3], the “activity, Free” value came out at 0 and the “activity, NiCl2 (1 mM)” value was found to be 0.
